Laboratory results reported in US20060069132A1, “Azolecarboxamide herbicides” (priority 2004, published 2006).

Columns and labels:
lambsquarters = assay: Test B pre-/postemergence herbicide test; format: in vivo, Chenopodium album; conditions: for Lambsquarters plant response rating: scale 0 (no effect) to 100 (complete control)
Procedure, shortened: (§1)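 Test chemicals in a non-phytotoxic solvent mixture with surfactant were applied preemergence to seeded species and postemergence to plants 2-18 cm tall (1- to 4-leaf stage); rice and barnyardgrass were also tested in a flooded paddy at the 2-leaf stage. Visual rating versus controls after 13-15 days in greenhouse, scale 0 (no effect) to 100 (complete control).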

ducksalad = assay: Test B flooded paddy test; format: in vivo, Heteranthera limosa; conditions: 1000 g ai/ha, scale 0 to 100 (0 no effect, 100 complete control)
Procedure, shortened: (§2)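 After treating 2-leaf paddy plants or 2–18 cm postemergence plants (1 to 4 leaves) with formulated chemical, researchers kept them in a greenhouse for 13–15 days. Effects were judged visually versus controls: 0 indicates none, 100 total control.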

velvetleaf = assay: Test B pre-/postemergence herbicide test; format: in vivo, Abutilon theophrasti; conditions: for Velvetleaf plant response rating: scale 0 (no effect) to 100 (complete control)
Procedure, shortened: as §1

Surinam grass = assay: Test B pre-/postemergence herbicide test; format: in vivo, Urochloa decumbens; conditions: for Surinam Grass plant response rating: scale 0 (no effect) to 100 (complete control)
Procedure, shortened: as §1

large crabgrass = assay: Test B pre-/postemergence herbicide test; format: in vivo, Digitaria sanguinalis; conditions: for Crabgrass, Large plant response rating: postemergence
Procedure, shortened: as §1

pigweed = assay: Test B pre-/postemergence herbicide test; format: in vivo, Amaranthus retroflexus; conditions: for Pigweed plant response rating: scale 0 (no effect) to 100 (complete control)
Procedure, shortened: as §1

cocklebur = assay: Test B pre-/postemergence herbicide test; format: in vivo, Xanthium strumarium; conditions: for Cocklebur plant response rating: postemergence
Procedure, shortened: (§3)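 Flooded paddy rice and barnyardgrass were treated at the 2-leaf stage; upland plantings received compound either on sown seed or on 1- to 4-leaf seedlings. All were kept 13–15 days in a greenhouse and scored visually, 0–100, relative to untreated plants.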

wild oat = assay: Test B postemergence herbicide test; format: in vivo, Avena fatua; conditions: scale 0 (no effect) to 100 (complete control)
Procedure, shortened: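 Formulated test chemicals went onto postemergence plants measuring 2 to 18 cm, at one to four leaves. For the paddy assay, species had reached two leaves. Scoring took place 13–15 days later by eye, relative to untreated plants, using 0 for no effect up to 100 for full control.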

barnyardgrass = assay: Test B pre-/postemergence herbicide test; format: in vivo, Echinochloa crus-galli; conditions: for Barnyardgrass plant response rating: postemergence
Procedure, shortened: as §3

corn = assay: Test B pre-/postemergence herbicide test; format: in vivo, Zea mays; conditions: for Corn plant response rating: postemergence
Procedure, shortened: as §1

morningglory = assay: Test B pre-/postemergence herbicide test; format: in vivo, Ipomoea coccinea; conditions: for Morningglory plant response rating: scale 0 (no effect) to 100 (complete control)
Procedure, shortened: as §3

[1] = test system: small flower umbrella sedge; assay: Test B flooded paddy test; format: in vivo, Cyperus difformis; conditions: 1000 g ai/ha, scale 0 to 100 (0 no effect, 100 complete control)
Procedure, shortened: as §2

rice = assay: Test B flooded paddy test; format: in vivo, Oryza sativa; conditions: 1000 g ai/ha, scale 0 to 100 (0 no effect, 100 complete control)
Procedure, shortened: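 Paddy species grown to the 2-leaf stage under flooding; blackgrass sprayed postemergence at 2–18 cm (1- to 4-leaf stage). Plants kept in a greenhouse for 13 to 15 days, then visually rated against controls on 0 (no effect) to 100 (complete control).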

blackgrass = assay: Test B postemergence herbicide test; format: in vivo, Alopecurus myosuroides; conditions: postemergence
Procedure, shortened: as §2

giant foxtail = assay: Test B pre-/postemergence herbicide test; format: in vivo, Setaria faberi; conditions: for Foxtail, Giant plant response rating: postemergence
Procedure, shortened: as §1

[2] = 125 g ai/ha, 0 is no effect, 100 is complete control, preemergence
[3] = 125 g ai/ha, visual rating, postemergence
[4] = 125 g ai/ha, visual rating, scale 0 (no effect) to 100 (complete control)
[5] = 500 g ai/ha, scale 0 to 100, 0 is no effect, 100 is complete control

C=CCNC(=O)c1cccc(NC(=O)c2nn(C(C)C)nc2CC)c1 [Compound 382]
Plant response rating (0 to 100 scale), Lambsquarters (lambsquarters; [2]): 100
Lambsquarters plant response rating (lambsquarters; [3]): 50
Lambsquarters plant response rating (lambsquarters; Postemergence, 500 g ai/ha): 70
Ducksalad plant response rating (ducksalad): 80
Plant response rating (0 to 100 scale), Velvetleaf (velvetleaf; [2]): 10
Velvetleaf plant response rating (velvetleaf; [3]): 10
Velvetleaf plant response rating (velvetleaf; Postemergence, 500 g ai/ha): 20
Plant response rating (0 to 100 scale), Surinam Grass (Surinam grass; [2]): 50
Surinam Grass plant response rating (Surinam grass; [3]): 10
Surinam Grass plant response rating (Surinam grass; Postemergence, 500 g ai/ha): 10
Plant response rating (0 to 100 scale), Crabgrass, Large (large crabgrass; [2]): 80
Crabgrass, Large plant response rating (large crabgrass; [4]): 10
Crabgrass, Large plant response rating (large crabgrass; [5]): 10
Plant response rating (0 to 100 scale), Pigweed (pigweed; [2]): 50
Pigweed plant response rating (pigweed; [3]): 30
Pigweed plant response rating (pigweed; Postemergence, 500 g ai/ha): 40
Plant response rating (0 to 100 scale), Cocklebur (cocklebur; [2]): 0
Cocklebur plant response rating (cocklebur; [4]): 10
Cocklebur plant response rating (cocklebur; [5]): 10
Oat, Wild plant response rating (wild oat; [3]): 10
Oat, Wild plant response rating (wild oat; Postemergence, 500 g ai/ha): 20
Plant response rating (0 to 100 scale), Barnyardgrass (barnyardgrass; [2]): 80
Barnyardgrass plant response rating (barnyardgrass; [4]): 0
Barnyardgrass plant response rating (barnyardgrass; [5]): 0
Plant response rating (0 to 100 scale), Corn (corn; [2]): 0
Corn plant response rating (corn; [4]): 0
Corn plant response rating (corn; [5]): 0
Plant response rating (0 to 100 scale), Morningglory (morningglory; [2]): 10
Morningglory plant response rating (morningglory; [3]): 20
Morningglory plant response rating (morningglory; Postemergence, 500 g ai/ha): 60
Sedge, Umbrella plant response rating [1]: 70
Rice plant response rating (rice): 80
Blackgrass plant response rating (blackgrass; [4]): 10
Blackgrass plant response rating (blackgrass; [5]): 30
Plant response rating (0 to 100 scale), Foxtail, Giant (giant foxtail; [2]): 80
Foxtail, Giant plant response rating (giant foxtail; [4]): 0
Foxtail, Giant plant response rating (giant foxtail; [5]): 10
